Data on six compounds can be found in patent US8895504B2, “Amylin derivatives” (priority 2008, dated 2014).

*1 amine or outer side, *2 acyl side, *3 side chain or, on linkers, in order; H or OH if unused. Where a SMILES comes first, the peptide text is derived from it. Bridges are numbered along the chain shown (N, C = ends). The star is where a group is joined. C20 diacid = O=C(O)CCCCCCCCCCCCCCCCCCC(=O)*; γGlu = O=C(O)[C@H](CCC(=O)[*:2])N[*:1]

This assay concerns the target T1, Amylin 3(a) receptor (human calcitonin receptor (CTa) and RAMP-3) (Homo sapiens, UniProt O60896+P30988).
T1 construct: expressed in transfected cells; host or cells: BHK570 cells, stably transfected with a CRE-luciferase reporter
Description: Luciferase assay (III), BHK Amylin 3(a)//CRE-luc cells. The format is cell-based. To be noted: BHK cells with Amylin 3(a) receptor and CRE luciferase reporter, 4 hours incubation; read-out: Potency Luciferase. In outline:
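BHK570 cells stably expressing CTa, RAMP-3 and a CRE-luciferase reporter, seeded at about 20,000 cells/well and grown overnight. Cells were exposed to standard or sample for 4 h at 37° C in phenol red-free DMEM with 10% FBS and 10 mM Hepes, pH 7,4. Luminescence was read after 30 min LucLite at room temperature.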

T1 sequence (O60896 24-148): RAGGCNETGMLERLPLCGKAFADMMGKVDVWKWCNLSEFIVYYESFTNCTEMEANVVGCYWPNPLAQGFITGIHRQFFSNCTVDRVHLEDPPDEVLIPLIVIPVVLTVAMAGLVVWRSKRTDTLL
T1 sequence (P30988 25-474): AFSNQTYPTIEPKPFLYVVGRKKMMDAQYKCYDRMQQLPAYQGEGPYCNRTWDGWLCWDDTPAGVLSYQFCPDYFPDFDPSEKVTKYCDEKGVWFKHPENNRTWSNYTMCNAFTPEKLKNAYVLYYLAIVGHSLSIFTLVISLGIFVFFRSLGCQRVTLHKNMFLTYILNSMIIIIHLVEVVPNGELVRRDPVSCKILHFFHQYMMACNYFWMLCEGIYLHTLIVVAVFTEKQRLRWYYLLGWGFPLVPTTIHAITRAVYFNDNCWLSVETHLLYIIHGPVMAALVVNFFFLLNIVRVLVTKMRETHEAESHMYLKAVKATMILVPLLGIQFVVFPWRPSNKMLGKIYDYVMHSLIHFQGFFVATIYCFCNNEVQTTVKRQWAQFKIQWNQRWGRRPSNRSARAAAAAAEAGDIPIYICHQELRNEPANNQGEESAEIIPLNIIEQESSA

Take `CC[C@H](C)[C@H](NC(=O)[C@@H]1CCCN1C(=O)CNC(=O)[C@H](Cc1ccccc1)NC(=O)[C@H](CC(N)=O)NC(=O)[C@H](CC(N)=O)NC(=O)[C@H](CO)NC(=O)[C@H](CO)NC(=O)[C@H](Cc1c[nH]cn1)NC(=O)[C@H](CCCNC(=N)N)NC(=O)[C@H](CC(C)C)NC(=O)[C@H](Cc1ccccc1)NC(=O)[C@H](CC(N)=O)NC(=O)[C@H](C)NC(=O)[C@H](CC(C)C)NC(=O)[C@H](CCCNC(=N)N)NC(=O)[C@H](CCC(N)=O)NC(=O)[C@@H](NC(=O)[C@H](C)NC(=O)[C@@H]1CSSC[C@H](NC(=O)[C@H](Cc2c[nH]cn2)NC(=O)CC[C@H](NC(=O)CCCCCCCCCCCCCCCCCCC(=O)O)C(=O)O)C(=O)N[C@@H](CC(N)=O)C(=O)N[C@@H]([C@@H](C)O)C(=O)N[C@@H](C)C(=O)N[C@@H]([C@@H](C)O)C(=O)N1)[C@@H](C)O)C(=O)N[C@@H](CC(C)C)C(=O)N1CCC[C@H]1C(=O)N1CCC[C@H]1C(=O)N[C@H](C(=O)N[C@@H](CC(N)=O)C(=O)N[C@H](C(=O)NCC(=O)N[C@@H](CO)C(=O)N[C@@H](CC(N)=O)C(=O)N[C@H](C(=O)N[C@@H](Cc1ccc(O)cc1)C(N)=O)[C@@H](C)O)C(C)C)[C@@H](C)O` [Example 36, N-alpha-[(S)-4-Carboxy-4-(19-carboxynonadecanoylamino)butyryl]-[His1,Arg17]-pramlintide] ({C20 diacid-γGlu}-HCNTATCATQRLANFLRHSSNNFGPILPPTNVGSNTY-NH2; disulfide 2-7): the EC50 worked out at 0.1 nM.

Turning to `CC(C)C[C@H](NC(=O)[C@H](CCCNC(=N)N)NC(=O)[C@H](CCC(N)=O)NC(=O)[C@@H](NC(=O)[C@H](C)NC(=O)[C@@H]1CSSC[C@H](NC(=O)[C@H](CCC(=O)O)NC(=O)[C@H](CCCNC(=N)N)NC(=O)[C@H](CCC(=O)O)NC(=O)CC[C@H](NC(=O)CCCCCCCCCCCCCCCCCCC(=O)O)C(=O)O)C(=O)N[C@@H](CC(N)=O)C(=O)N[C@@H]([C@@H](C)O)C(=O)N[C@@H](C)C(=O)N[C@@H]([C@@H](C)O)C(=O)N1)[C@@H](C)O)C(=O)N[C@@H](C)C(=O)N[C@@H](CC(N)=O)C(=O)N[C@@H](Cc1ccccc1)C(=O)N[C@@H](CC(C)C)C(=O)N[C@@H](Cc1c[nH]cn1)C(=O)N[C@@H](Cc1c[nH]cn1)C(=O)N[C@@H](CO)C(=O)N[C@@H](CO)C(=O)N[C@@H](CCC(N)=O)C(=O)N[C@@H](CC(N)=O)C(=O)N[C@@H](Cc1ccccc1)C(=O)NCC(=O)N[C@@H](C)C(=O)N1CCC[C@H]1C(=O)N[C@@H](CC(C)C)C(=O)N[C@@H](CO)C(=O)N[C@@H](CO)C(=O)N[C@H](C(=O)N[C@@H](CC(N)=O)C(=O)N[C@H](C(=O)NCC(=O)N[C@@H](CO)C(=O)N[C@@H](CC(N)=O)C(=O)N[C@H](C(=O)N[C@@H](Cc1ccc(O)cc1)C(N)=O)[C@@H](C)O)C(C)C)[C@@H](C)O` [Example 41, N-alpha-[(S)-4-Carboxy-4-(19-carboxynonadecanoylamino)butyryl]-Glu-Arg-[Glu1,His17,Gln21,Ala25,Pro26,Ser28,Ser29]-pramlintide] ({C20 diacid-γGlu}-ERECNTATCATQRLANFLHHSSQNFGAPLSSTNVGSNTY-NH2; disulfide 4-9), the EC50 is 0.1 nM.

In the case of `CC(C)C[C@H](NC(=O)[C@H](CCCNC(=N)N)NC(=O)[C@H](CCC(N)=O)NC(=O)[C@@H](NC(=O)[C@H](C)NC(=O)[C@@H]1CSSC[C@H](NC(=O)[C@H](CCC(=O)O)NC(=O)[C@H](CCCNC(=N)N)NC(=O)[C@H](CCC(=O)O)NC(=O)CC[C@H](NC(=O)CCCCCCCCCCCCCCCCCCC(=O)O)C(=O)O)C(=O)N[C@@H](CC(N)=O)C(=O)N[C@@H]([C@@H](C)O)C(=O)N[C@@H](C)C(=O)N[C@@H]([C@@H](C)O)C(=O)N1)[C@@H](C)O)C(=O)N[C@@H](C)C(=O)N[C@@H](CC(=O)O)C(=O)N[C@@H](Cc1ccccc1)C(=O)N[C@@H](CC(C)C)C(=O)N[C@@H](Cc1c[nH]cn1)C(=O)N[C@@H](Cc1c[nH]cn1)C(=O)N[C@@H](CO)C(=O)N[C@@H](CO)C(=O)N[C@@H](CC(N)=O)C(=O)N[C@@H](CC(N)=O)C(=O)N[C@@H](Cc1ccccc1)C(=O)NCC(=O)N[C@@H](C)C(=O)N1CCC[C@H]1C(=O)N[C@@H](CC(C)C)C(=O)N[C@@H](CO)C(=O)N[C@@H](CO)C(=O)N[C@H](C(=O)N[C@@H](CC(N)=O)C(=O)N[C@H](C(=O)NCC(=O)N[C@@H](CO)C(=O)N[C@@H](CC(N)=O)C(=O)N[C@H](C(=O)N[C@@H](Cc1ccc(O)cc1)C(N)=O)[C@@H](C)O)C(C)C)[C@@H](C)O` [Example 42, N-alpha-[(S)-4-Carboxy-4-(19-carboxynonadecanoylamino)butyryl]-Glu-Arg-[Glu1,Asp14,His17,Ala25,Pro26,Ser28,Ser29]-pramlintide] ({C20 diacid-γGlu}-ERECNTATCATQRLADFLHHSSNNFGAPLSSTNVGSNTY-NH2; disulfide 4-9), the EC50 amounted to 0.6 nM.

For the compound `CC[C@H](C)[C@H](NC(=O)[C@@H]1CCCN1C(=O)CNC(=O)[C@H](Cc1ccccc1)NC(=O)[C@H](CC(N)=O)NC(=O)[C@H](CC(N)=O)NC(=O)[C@H](CO)NC(=O)[C@H](CO)NC(=O)[C@H](Cc1c[nH]cn1)NC(=O)[C@H](Cc1c[nH]cn1)NC(=O)[C@H](CC(C)C)NC(=O)[C@H](Cc1ccccc1)NC(=O)[C@H](CC(=O)O)NC(=O)[C@H](C)NC(=O)[C@H](CC(C)C)NC(=O)[C@H](CCCNC(=N)N)NC(=O)[C@H](CCC(N)=O)NC(=O)[C@@H](NC(=O)[C@H](C)NC(=O)[C@@H]1CSSC[C@H](NC(=O)CC[C@H](NC(=O)CCCCCCCCCCCCCCCCCCC(=O)O)C(=O)O)C(=O)N[C@@H](CC(N)=O)C(=O)N[C@@H]([C@@H](C)O)C(=O)N[C@@H](C)C(=O)N[C@@H]([C@@H](C)O)C(=O)N1)[C@@H](C)O)C(=O)N[C@@H](CC(C)C)C(=O)N1CCC[C@H]1C(=O)N1CCC[C@H]1C(=O)N[C@H](C(=O)N[C@@H](CC(N)=O)C(=O)N[C@H](C(=O)NCC(=O)N[C@@H](CO)C(=O)N[C@@H](CC(N)=O)C(=O)N[C@H](C(=O)N[C@@H](Cc1ccc(O)cc1)C(N)=O)[C@@H](C)O)C(C)C)[C@@H](C)O` [Example 43, N-alpha-[(S)-4-Carboxy-4-(19-carboxynonadecanoylamino)butyryl]-[Asp14,His17]-pramlintide (2-37)] ({C20 diacid-γGlu}-CNTATCATQRLADFLHHSSNNFGPILPPTNVGSNTY-NH2; disulfide 1-6), the EC50 worked out at 0.1 nM. With `CC[C@H](C)[C@H](NC(=O)[C@@H]1CCCN1C(=O)[C@H](CCC(=O)O)NC(=O)[C@H](Cc1ccccc1)NC(=O)[C@H](CC(N)=O)NC(=O)[C@H](CC(N)=O)NC(=O)[C@H](CO)NC(=O)[C@H](CO)NC(=O)[C@H](Cc1c[nH]cn1)NC(=O)[C@H](Cc1c[nH]cn1)NC(=O)[C@H](CC(C)C)NC(=O)[C@H](Cc1ccccc1)NC(=O)[C@H](CC(N)=O)NC(=O)[C@H](C)NC(=O)[C@H](CC(C)C)NC(=O)[C@H](CCCNC(=N)N)NC(=O)[C@H](CCC(N)=O)NC(=O)[C@@H](NC(=O)[C@H](C)NC(=O)[C@@H]1CSSC[C@H](NC(=O)CC[C@H](NC(=O)CCCCCCCCCCCCCCCCCCC(=O)O)C(=O)O)C(=O)N[C@@H](CC(N)=O)C(=O)N[C@@H]([C@@H](C)O)C(=O)N[C@@H](C)C(=O)N[C@@H]([C@@H](C)O)C(=O)N1)[C@@H](C)O)C(=O)N[C@@H](CC(C)C)C(=O)N1CCC[C@H]1C(=O)N1CCC[C@H]1C(=O)N[C@H](C(=O)N[C@@H](CC(N)=O)C(=O)N[C@H](C(=O)NCC(=O)N[C@@H](CO)C(=O)N[C@@H](CC(N)=O)C(=O)N[C@H](C(=O)N[C@@H](Cc1ccc(O)cc1)C(N)=O)[C@@H](C)O)C(C)C)[C@@H](C)O` [Example 44, N-alpha-[(S)-4-Carboxy-4-(19-carboxynonadecanoylamino)butyryl]-[His17,Glu24]-pramlintide (2-37)] ({C20 diacid-γGlu}-CNTATCATQRLANFLHHSSNNFEPILPPTNVGSNTY-NH2; disulfide 1-6) the figure was 0.1 nM; with `CC(C)C[C@H](NC(=O)[C@H](CCCNC(=N)N)NC(=O)[C@H](CCC(N)=O)NC(=O)[C@@H](NC(=O)[C@H](C)NC(=O)[C@@H]1CSSC[C@H](NC(=O)[C@H](CCC(=O)O)NC(=O)[C@H](CCCNC(=N)N)NC(=O)[C@H](CCC(=O)O)NC(=O)CC[C@H](NC(=O)CCCCCCCCCCCCCCCCCCC(=O)O)C(=O)O)C(=O)N[C@@H](CC(N)=O)C(=O)N[C@@H]([C@@H](C)O)C(=O)N[C@@H](C)C(=O)N[C@@H]([C@@H](C)O)C(=O)N1)[C@@H](C)O)C(=O)N[C@@H](C)C(=O)N[C@@H](CC(N)=O)C(=O)N[C@@H](Cc1ccccc1)C(=O)N[C@@H](CC(C)C)C(=O)N[C@@H](CCCNC(=N)N)C(=O)N[C@@H](Cc1c[nH]cn1)C(=O)N[C@@H](CO)C(=O)N[C@@H](CO)C(=O)N[C@@H](CC(N)=O)C(=O)N[C@@H](CC(N)=O)C(=O)N[C@@H](Cc1ccccc1)C(=O)NCC(=O)N[C@@H](C)C(=O)N1CCC[C@H]1C(=O)N[C@@H](CC(C)C)C(=O)N[C@@H](CO)C(=O)N[C@@H](CO)C(=O)N[C@H](C(=O)N[C@@H](CC(N)=O)C(=O)N[C@H](C(=O)NCC(=O)N[C@@H](CO)C(=O)N[C@@H](CC(N)=O)C(=O)N[C@H](C(=O)N[C@@H](Cc1ccc(O)cc1)C(N)=O)[C@@H](C)O)C(C)C)[C@@H](C)O` [Example 46, N-alpha-[(S)-4-Carboxy-4-(19-carboxynonadecanoylamino)butyryl]-Glu-Arg-[Glu1,Arg17,Ala25,Pro26,Ser28,Ser29]-pramlintide] ({C20 diacid-γGlu}-ERECNTATCATQRLANFLRHSSNNFGAPLSSTNVGSNTY-NH2; disulfide 4-9), 0.2 nM.
